Laboratory results: US8563546B2, “Heterocyclic nitrogenous or oxygenous compounds with insecticidal activity formed from dialdehydes and their preparation and uses thereof” (East China University of Science and Technology, priority 2008, dated 2013)
Like-named read-outs stand apart in the source and are kept apart here.

How the values were obtained:
Assay type in all cases: in vivo
Nilaparvata lugens = assay: Activity test for planthopper, spraying; conditions: for mortality at 500 ppm: Nilaparvata lugens, read-out: Planthopper Mortality (100%) 500 ppm
Procedure: (2) Activity Test for Planthopper (Nilaparvata lugens)
Planthopper, which belongs to Homoptera and has a piercing-sucking mouthpart, is a common insect for agricultural plant. Nilaparvata lugens was tested by the way of spraying.
Test method: the test compound was exactly formulated into a solution of acetone to final concentration of 500, 250, 100, 50, 25, 12.5, 6.25, 3.13, 1.57 and 0.79 ppm. The acetone aqueous solution was used as control. Each process was repeated for 3 tumblers (3 times). 2 mL of solution was sprayed uniformly to each cup by a mini manual sprayer. 10 Nilaparvata lugens were introduced to every sink 6 hours before spraying. Three series of experiments were conducted. The number of killed Nilaparvata lugens was counted after 24 hours to calculate the mortality using above mentioned formula.

Plutella Xylostella = assay: Activity test for diamondback moth, feeding immersed cabbage leaves; conditions: for mortality at 500 ppm: Plutella xylostella, read-out: Diamondback moth Mortality (100%) 500 ppm
Procedure: (4) Activity Test for Diamondback Moth (Plutella Xylostella)
Diamondback moth was tested by the way of feeding immersed leaves. Fresh cabbage leaves were immersed in above mentioned solution for 3 seconds and dried at room temperature and used to feed to the tested insects. Each process was repeated for 3 tumblers (3 times) while 10 Diamondback moths were tested in each experiment, while water was used as control. The number of killed Diamondback moth was counted after 24 hours to calculate the mortality using above mentioned formula.

Aphis craccivoral = assay: Activity test for cowpea aphids, immersing; conditions: for mortality at 500 ppm: Aphis, read-out: Cowpea Aphids Mortality (100%) 500 ppm
Procedure: (1) Activity Test for Cowpea Aphids (Aphis Craccivoral)
Aphis, which belongs to Homoptera and has a piercing-sucking mouthpart, is a common insect for agricultural plant. Aphis craccivoral was tested by the way of immersing.
Test method: exactly weighed various samples were independently added to N,N-dimethylformamide to form a 10 g/L stock solution. The mixture was diluted with 0.2 mL/L aqueous Triton X-100 solution to a concentration of 500 ppm After stably sucking on bean sprout, the adult aphis without wings together with bean sprout was dipped into 500 ppm dilution, taken out after 5 seconds, and the excess dilution was sucked out with bibulous paper and the adult aphis without wings was incubated in clean vessel at a constant temperature of 23° C. Each concentration was repeated for 3 times and the control group contained 0.2 mL/L aqueous Triton X-100 solution. The number of killed aphis was counted after 24 hours to calculate the mortality by the following formula: mortality(%)=(control alive aphis−treated alive aphis)/control alive aphis×100%.

[1] = tested on: Pseudaletia Separate Walker; assay: Activity test for armyworm, feeding immersed maize leaves; conditions: for mortality at 500 ppm: read-out: Armyworm Mortality (100%) 500 ppm
Procedure: (3) Activity Test for Armyworm (Pseudaletia Separate Walker)
Armyworm was tested by the way of feeding immersed leaves. The test compound was exactly formulated into a solution of acetone to concentration 500, 250, 100, 50, 25, 12.5, 6.25, 3.13 and 1.57 ppm. The acetone aqueous solution was used as control. Fresh maize leaves were immersed in the solution for 3 seconds and dried at room temperature and used to feed the tested insects. Each process was repeated for 3 times while 10 Armyworms were tested in each experiment. The number of killed Armyworms was counted after 24 hours to calculate the mortality using above mentioned formula.

[2] = 500 ppm, spraying, counted after 24 hours
[3] = 500 ppm, immersed cabbage leaves, counted after 24 hours
[4] = 500 ppm, dipped 5 seconds, counted after 24 hours, 23° C.
[5] = 500 ppm, immersed maize leaves, counted after 24 hours

Compound | mortality at 500 ppm (Nilaparvata lugens; [2]) [%] | mortality at 500 ppm (Plutella Xylostella; [3]) [%] | mortality at 500 ppm (Aphis craccivoral; [4]) [%] | mortality at 500 ppm [1, 5] [%] | mortality at 500 ppm (Nilaparvata lugens; 24 h) [%] | mortality at 500 ppm (Plutella Xylostella; 24 h) [%] | mortality at 500 ppm (Aphis craccivoral; 24 h) [%] | mortality at 500 ppm ([1]; 24 h) [%] | other results
CCN(Cc1ccc(Cl)nc1)C1=C([N+](=O)[O-])C2CCC(O2)N1C (stereo not shown) [Compound 46, N-((6-chloropyridin-3-yl)methyl)-N-ethyl-2-methyl-4-nitro-8-oxa-2-aza-bicyclo[3.2.1]oct-3-en-3-amine] | 100 | 100 | 100 | 100 |  |  |  |  | 
O=[N+]([O-])/C(=C/C/C=C(\C1=NCCN1Cc1cnc(Cl)s1)[N+](=O)[O-])C1=NCCN1Cc1cnc(Cl)s1 [Compound 41] |  |  |  |  | 100 | 100 | 100 | 100 | 
CCN(Cc1ccc(Cl)nc1)C(=N\C)/C(=C\C/C=C(\C(=N\C)N(CC)Cc1ccc(Cl)nc1)[N+](=O)[O-])[N+](=O)[O-] [Compound 37, N^1,N^7-bis((6-chloropyridin-3-yl)methyl)-N^1,N^7-diethyl-N^1′, N^7′-dimethyl-2,6-dinitrohepta-2,5-dienediamidine] |  |  |  |  | 100 | 100 | 100 | 100 | 
O=[N+]([O-])C1=C2N(Cc3cnc(Cl)s3)CCN2C2CCC1O2 (stereo not shown) [Compound 53, 1-((2-chlorothiazol-5-yl)methyl)-9-nitro-2,3,5,6,7,8-hexahydro-1H-5,8-epoxyimidazo[1,2-a]azepine] | 100 | 100 | 100 | 100 |  |  |  |  | 
O=[N+]([O-])/C(=C/C/C=C(\C1=NCCN1Cc1ccc(Cl)nc1)[N+](=O)[O-])C1=NCCN1Cc1ccc(Cl)nc1 [Compound 39] |  |  |  |  | 100 | 100 | 100 | 100 | 
COC(/C=C(\C1=NCCN1Cc1ccc(Cl)nc1)[N+](=O)[O-])/C(=C1\NCCN1Cc1ccc(Cl)nc1)[N+](=O)[O-] (stereo not shown) [Compound 14] |  |  |  |  | 100 | 100 | 100 | 100 | 
O=[N+]([O-])C1=C2N(CC3CCOC3)CCN2C2CCCC1O2 (stereo not shown) [Compound 80, 10-nitro-1-((tetrahydrofuran-3-yl)methyl)-1,2,3,5,6,7,8,9-octahydro-5,9-epoxyimidazo[1,2-a]azocine] |  | 100 |  |  | 100 |  | 100 | 100 | 
O=[N+]([O-])C1=C2N(Cc3ccc(Cl)nc3)CCN2C2CCC1O2 (stereo not shown) [Compound 52, 1-((6-chloropyridin-3-yl)methyl)-9-nitro-2,3,5,6,7,8-hexahydro-1H-5,8-epoxyimidazo[1,2-a]azepine] | 100 | 100 | 100 | 100 |  |  |  |  | 
1-((6-chloropyridin-3-yl)methyl)-5-(1-((6-chloropyridin-3-yl) methyl)-1,4,5,6-tetrahydropyrimidin-2-yl)-1,5-dinitropenta-1,4-dienyl)-1,4,5,6-tetrahydropyrimidine [Compound 43] |  |  |  |  |  |  |  |  | Planthopper Mortality (100%) 500 ppm (Nilaparvata lugens; [2]): 87%; Diamondback moth Mortality (100%) 500 ppm (Plutella Xylostella; [3]): 96%; Cowpea Aphids Mortality (100%) 500 ppm (Aphis craccivoral; [4]): 78%; Armyworm Mortality (100%) 500 ppm [1, 5]: 100%
O=[N+]([O-])/C(=C1/NCCN1Cc1ccc(Cl)nc1)C(O)/C=C(\C1=NCCN1Cc1ccc(Cl)nc1)[N+](=O)[O-] (stereo not shown) [Compound 13, 4-(1-((6-chloropyridin-3-yl)methyl)-4,5-dihydro-1H-imidazol-2-yl)-1-(1-((6-chloropyridin-3-yl)methyl)imidazolidin-2-ylidene)-1,4-dinitrobut-3-en-2-ol] |  |  |  |  | 85 | 100 | 78 | 100 | 
O=[N+]([O-])C1=C2N(Cc3ccc(Cl)nc3)CCN2C2CCCC1O2 (stereo not shown) [Compound 77, 1-((6-chloropyridin-3-yl)methyl)-10-nitro-1,2,3,5,6,7,8,9-octahydro-5,9-epoxyimidazo[1,2-a]azocine] | 100 | 100 | 100 | 100 |  |  |  |  | 
O=[N+]([O-])C1=C2N(Cc3ccc(Cl)nc3)CCCN2C2CCC1O2 (stereo not shown) [Compound 61, 1-((6-chloropyridin-3-yl)methyl)-10-nitro-1,2,3,4,6,7,8,9-octahydro-6,9-epoxypyrimido[1,2-a]azepine] | 75 | 35 | 65 | 76 |  |  |  |  | 
N#CC1=C2N(Cc3ccc(Cl)nc3)CCN2C2CCC1O2 (stereo not shown) [Compound 64, 1-((6-chloropyridin-3-yl)methyl)-2,3,5,6,7,8-hexahydro-1H-5,8-epoxyimidazo[1,2-a]azepine-9-carbonitrile] | 56 | 100 | 96 | 100 |  |  |  |  | 
